Values quoted from earlier work as cited in US20240408056A1, “METHODS FOR REPAIRING NERVE DAMAGE USING PKC ACTIVATING THERAPEUTIC AGENTS” (priority 2023, published 2024).
Where two headings read alike, the source gives them in different places.

Biological target: PKC
[1] = A-ring bryologs, read-out: affinity for PKC

Row | SMILES | Ki (Table 1, Bryologs, read-out: PKC Affinity) | affinity for PKC (in words) (compared with Bryostatin-1 and the other bryologs) | Ki [1]
1 | CCCCCCCC(=O)OC1C(=CC(=O)OC)CC2CC(CO)OC(=O)CC(O)CC3CCCC(CC4CCOC(C=CC(C)(C)C1(O)O2)O4)O3 (centres unmarked) [Analog 1] | 0.25 nM | highest affinity for PKC | 
2 | CCCCCCCC(=O)OC1C(=CC(=O)OC)CC2CC(CO)OC(=O)CC(O)CCOC(C(C)(C)C)CC3CCOC(C=CC(C)(C)C1(O)O2)O3 (centres unmarked) [bryolog 3] |  |  | 6.5 nM
3 | CCCCCCCC(=O)OC1C(=CC(=O)OC)CC2CC(CO)OC(=O)CC(O)CCOC(c3ccccc3)CC3CCOC(C=CC(C)(C)C1(O)O2)O3 (centres unmarked) [bryolog 4] |  |  | 2.3 nM
4 | CCCCCCCC(=O)OC1C(=CC(=O)OC)CC2CC(CO)OC(=O)CC(O)CCOC(CCCc3ccc(Br)cc3)CC3CCOC(C=CC(C)(C)C1(O)O2)O3 (centres unmarked) [bryolog 5] |  |  | 1.9 nM
